Tests used:
[1] = tested on: Eleusine indica; assay: Pot experiment, indoor herbicidal activity (stem and leaf spray); type: in vivo; conditions: fresh weight inhibition rate, 45 g a.i/hm^2, stem and leaf spray, 21st day after applying
Procedure: (§1) 20 mg of the pyrimidinylthio-benzoate compound active pharmaceutical ingredients (APIs) is weighed with a 1/10,000 analytical balance, dissolved with acetone (or DMF or DMSO), and diluted with a 0.1% Tween-80 aqueous solution to a concentration of 45 g a.i/hm^2.
(§2) The test soil is quantitatively filled to 4/5 of the pot, and subirrigation method is adopted at a bottom of the pot to moisten the soil. The test weed seeds are sown on the soil surface and cultivated in a greenhouse. When the gramineous weeds grow to 3-4 leaf stage and broadleaf weeds grow to 4-6 leaf stage, a stem and leaf spray method is used for treatment. On the 21st day after applying the herbicide, the above-ground part is taken to weigh the fresh weight, and the fresh weight inhibition rate is calculated according to the formula. Fresh weight inhibition rate (%)=(control fresh weight−treated fresh weight)/control fresh weight×100%
(§3) Pyrithiobac-sodium is used as a positive control. The herbicidal activity of the target compound is screened. The dosage refers to the applied dosage of the pyrithiobac-sodium in the cotton field, i.e., 45 g a.i/hm^2, and the stem and leaf spray method is used for treatment.

[2] = tested on: Setaria viridis; assay: as above; type: in vivo; conditions: fresh weight inhibition rate, 45 g a.i/hm^2, stem and leaf spray, 21st day after applying
Procedure: as §1, §2, §3

[3] = tested on: Amaranthus retroflexus; assay: as above; type: in vivo; conditions: fresh weight inhibition rate, 45 g a.i/hm^2, stem and leaf spray, 21st day after applying
Procedure: as §1, §2, §3

[4] = tested on: Chenopodium album; assay: as above; type: in vivo; conditions: fresh weight inhibition rate, 45 g a.i/hm^2, stem and leaf spray, 21st day after applying
Procedure: as §1, §2, §3

[5] = tested on: Echinochloa crusgalli; assay: as above; type: in vivo; conditions: fresh weight inhibition rate, 45 g a.i/hm^2, stem and leaf spray, 21st day after applying
Procedure: as §1, §2, §3

[6] = tested on: Portulaca oleracea; assay: as above; type: in vivo; conditions: fresh weight inhibition rate, 45 g a.i/hm^2, stem and leaf spray, 21st day after applying
Procedure: as §1, §2, §3

SMILES | melting point | Inhibition rate (%) Eleusine indica [1] | Inhibition rate (%) Setaria viridis [2] | Inhibition rate (%) Amaranthus retroflexus [3] | Inhibition rate (%) Chenopodium album [4] | Inhibition rate (%) Echinochloa crusgalli [5] | Inhibition rate (%) Portulaca oleracea [6]
COc1cc(OC)nc(Sc2cccc(Cl)c2C(=O)O/N=C(\C)c2ccccc2C)n1 [A, (E)-1-(o-tolyl)ethan-1-one O-(2-chloro-6-((4,6-dimethoxypyrimidin-2-yl)thio)benzoyl) oxime] | 108 to 111 °C | 67.6% | 31.3% | 92.0% | 100% | 35.6% | 35.4%
COc1cc(OC)nc(Sc2cccc(Cl)c2C(=O)O/N=C(\C)c2ccc(C)cc2)n1 [C, (E)-1-(p-tolyl)ethan-1-one O-(2-chloro-6-((4,6-dimethoxypyrimidin-2-yl)thio)benzoyl) oxime] | 115 to 119 °C | 52.5% | 39.3% | 90.4% | 95.8% | 37.5% | 40.9%
COc1cc(OC)nc(Sc2cccc(Cl)c2C(=O)O/N=C(\C)c2ccccc2[N+](=O)[O-])n1 [G, (E)-1-(2-nitrophenyl)ethan-1-one O-(2-chloro-6-((4,6-dimethoxypyrimidin-2-yl)thio)benzoyl)oxime] | 130 to 134 °C | 84.6% | 60.3% | 100% | 95.7% | 90.4% | 89.4%
COc1cc(OC)nc(Sc2cccc(Cl)c2C(=O)O/N=C(\C)c2ccc([N+](=O)[O-])cc2)n1 [I, (E)-1-(4-nitrophenyl)ethan-1-one O-(2-chloro-6-((4,6-dimethoxypyrimidin-2-yl)thio)benzoyl)oxime] | 153 to 157 °C | 89.7% | 75.1% | 100% | 96.8% | 95.7% | 94.5%
COc1cc(OC)nc(Sc2cccc(Cl)c2C(=O)O/N=C(\C)c2ccccc2F)n1 [J, (E)-1-(2-fluorophenyl)ethan-1-one O-(2-chloro-6-((4,6-dimethoxypyrimidin-2-yl)thio)benzoyl) oxime] | 87 to 91 °C | 90.3% | 77.2% | 100% | 98.4% | 100% | 90.2%
COc1cc(OC)nc(Sc2cccc(Cl)c2C(=O)O/N=C(\C)c2ccc(F)cc2)n1 [L, (E)-1-(4-fluorophenyl)ethan-1-one O-(2-chloro-6((4,6-dimethoxypyrimidin-2-yl)thio)benzoyl) oxime] | 102 to 105 °C | 87.0% | 75.4% | 100% | 100% | 100% | 90.5%
COc1ccc(/C(C)=N/OC(=O)c2c(Cl)cccc2Sc2nc(OC)cc(OC)n2)c(OC)c1 [M, (E)-1-(2,4-dimethoxyphenyl)ethan-1-one O-(2-chloro-6-((4,6-dimethoxypyrimidin-2-yl)thio)benzoyl)oxime] | 125 to 129 °C | 85.6% | 77.2% | 100% | 100% | 100% | 90.9%
COc1cc(OC)nc(Sc2cccc(Cl)c2C(=O)O)n1 [Pyrithiobac-sodium, reference compound] | – | 44.7% | 65.4% | 95.2% | 93.9% | 60.6% | 96.8%

Now from value to compound, other results behind:

melting point | SMILES | Inhibition rate (%) Eleusine indica [1] | Inhibition rate (%) Setaria viridis [2] | Inhibition rate (%) Amaranthus retroflexus [3] | Inhibition rate (%) Chenopodium album [4] | Inhibition rate (%) Echinochloa crusgalli [5] | Inhibition rate (%) Portulaca oleracea [6]
84 to 88 °C | COc1cc(OC)nc(Sc2cccc(Cl)c2C(=O)O/N=C(\C)c2cccc(C)c2)n1 [B, (E)-1-(m-tolyl)ethan-1-one O-(2-chloro-6-((4,6-dimethoxypyrimidin-2-yl)thio)benzoyl) oxime] | 53.0% | 53.0% | 93.5% | 87.0% | 30.3% | 60.7%
82 to 85 °C | COc1cc(OC)nc(Sc2cccc(Cl)c2C(=O)O/N=C(\C)c2ccccc2C(F)(F)F)n1 [D, (E)-1-(2-(trifluoromethyl)phenyl)ethan-1-one O-(2-chloro-6-((4,6-dimethoxypyrimidin-2-yl)thio)benzoyl)oxime] | 52.4% | 33.7% | 80.2% | 89.6% | 78.3% | 69.2%
81 to 86 °C | COc1cc(OC)nc(Sc2cccc(Cl)c2C(=O)O/N=C(\C)c2cccc(C(F)(F)F)c2)n1 [E, (E)-1-(3-(trifluoromethyl)phenyl)ethan-1-one O-(2-chloro-6-((4,6-dimethoxypyrimidin-2-yl)thio)benzoyl)oxime] | 37.0% | 27.8% | 82.4% | 82.4% | 79.5% | 64.6%
86 to 90 °C | COc1cc(OC)nc(Sc2cccc(Cl)c2C(=O)O/N=C(\C)c2ccc(C(F)(F)F)cc2)n1 [F, (E)-1-(4-(trifluoromethyl)phenyl)ethan-1-one O-(2-chloro-6-((4,6-dimethoxypyrimidin-2-yl)thio)benzoyl)oxime] | 80.7% | 56.0% | 97.5% | 85.1% | 100% | 84.4%
155 to 159 °C | COc1cc(OC)nc(Sc2cccc(Cl)c2C(=O)O/N=C(\C)c2cccc([N+](=O)[O-])c2)n1 [H, (E)-1-(3-nitrophenyl)ethan-1-one O-(2-chloro-6-((4,6-dimethoxypyrimidin-2-yl)thio)benzoyl)oxime] | 88.5% | 64.6% | 100% | 90.4% | 87.7% | 85.9%
103 to 107 °C | COc1cc(OC)nc(Sc2cccc(Cl)c2C(=O)O/N=C(\C)c2cccc(F)c2)n1 [K, (E)-1-(3-fluorophenyl)ethan-1-one O-(2-chloro-6-((4,6-dimethoxypyrimidin-2-yl)thio)benzoyl) oxime] | 92.0% | 72.9% | 100% | 100% | 100% | 93.3%
